Source: PMC7568570, “Resensitizing carbapenem- and colistin-resistant bacteria to antibiotics using auranofin” (Nature Communications, 2020)

Biological target: T1, MCR-1 (Escherichia coli, UniProt A0A0R6L508)
T1 construct: gene mcr1; MCR-1-S, soluble periplasmic domain, residues 201-541 (200-541aa in Methods)
Assay: equilibrium dialysis with ICP-MS (Kd); crystal structure by soaking at […] Å; TLC cleavage inhibition of full-length MCR-1
Assay type: binding

T1 sequence (A0A0R6L508 201-541): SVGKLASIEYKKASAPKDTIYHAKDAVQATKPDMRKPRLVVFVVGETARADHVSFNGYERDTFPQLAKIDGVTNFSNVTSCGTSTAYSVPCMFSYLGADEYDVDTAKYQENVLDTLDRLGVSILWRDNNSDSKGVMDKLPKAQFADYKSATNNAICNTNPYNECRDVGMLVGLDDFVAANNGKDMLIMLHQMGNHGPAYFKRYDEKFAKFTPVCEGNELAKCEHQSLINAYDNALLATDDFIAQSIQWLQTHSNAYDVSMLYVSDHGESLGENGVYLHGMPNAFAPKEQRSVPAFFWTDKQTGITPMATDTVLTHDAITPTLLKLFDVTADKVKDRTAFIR

Q: With CC[P+](CC)(CC)[Au-][Cl] [Au(PEt3)Cl, chloro(triethylphosphine)gold(I)] as the compound, how does the Kd read?
A: 3.36 ± 0.38 µM
